# Assay results as given in article PMC10366102, “Dose escalation and expansion cohorts in patients with advanced breast cancer in a Phase I study of the CDK7-inhibitor samuraciclib” (Nature Communications, 2023).
# Where “and” joins values, the source holds several entries; their conditions need not be identical. Identical values can stand only once. Like-named read-outs stand apart in the source and are kept apart here.
# How the values were obtained:
# [1] = tested on: HR+/HER2− advanced breast cancer; assay: Module 2A anti-tumor activity (RECIST V1.1, PFS, ctDNA subgroups); assay type: in vivo, human
# Experimental: A single-arm, ascending-dose study was conducted in 2 cohorts to explore the recommended dose of samuraciclib and fulvestrant in HR+/HER2− advanced breast cancer patients who had previously received, and become resistant to, a CDK4/6 inhibitor. Female patients with histologically confirmed diagnosis of breast cancer, evidence of metastatic or locally advanced disease, and documented ER+ and/or PgR+ and HER2- tumor status treated with an AI in combination with a CDK4/6i before study entry were eligible. In each cohort the dose of fulvestrant was 500 mg every 28 ± 2 days, with an additional 500 mg dose given 14 ± 2 days after the first dose. Cohort 1 tested samuraciclib 240 mg OD continuous dosing. If the DLT stopping criteria were not met, Cohort 2 commenced enrollment at the Module 1A MTD. Patients underwent regular safety monitoring and 8-week scans reported using RECIST V1.1[32].
# (§1) Per-protocol ctDNA samples were taken in Module 1B-1 at screening, C1D1, C2D1 and on D1 of alternating cycles from Cycle 3; in Module 2A at screening, C1D1 and at either C2D1 (240 mg) or C2D15 (360 mg) for mutational analysis[24],[33], (Supplementary Information). pPolII in lymphocytes and pPolII and pCDK1/2/3 in core needle tissue samples from patients recruited to the paired biopsy cohort were evaluated for on-target pharmacodynamic analyses. […]
# treatment RECIST assessment. […]
# number of patients in the particular analysis population. Duration of response (DoR) was defined as the time from documentation of tumor response to disease progression. Progression-free survival (PFS) was […]
# cause, whichever occurred first. Efficacy results were summarized descriptively and Kaplan -Meier plots provided where appropriate. […]
# [2] = tested on: phosphorylated RNA polymerase II (pPolII); assay: Flow cytometry of pPolII in lymphocytes (PBMC preparations); assay type: in vivo, human; conditions: Module 1A, across all doses, Cycle 2 Day 1
# Experimental: as §1
# with the sponsor. All investigator sites attended the SRC so that updates on toxicity and MTD could be communicated immediately. No more than 6 participants could be recruited at a non-tolerated dose […]
# A summary of DLTs by cohort is provided in Supplementary Table 5. […]
# Cells were analysed cells on a BD Fortessa X20, acquiring 100,000 events. […]
# analysed using FlowJo (Treestar) version 10.4.2 to report the median fluorescence intensity of staining […]
# although not reaching statistical significance due to the low number of patients. pPolII was determined by a flow cytometry assay on samples of peripheral blood mononuclear cell (PBMC) preparations […]
# H-scores for pre-dose and on-study biopsies and summary statistics for the observed H-score when stained for pCDK1/2/3 and pPolII are shown in Supplementary Table 11. Significance was calculated using Student’s one-tailed paired t-test, where the alternative hypothesis was that on-study samples had […]
# [3] = parameters: method as in ref IB; conditions: ref IB, cited from earlier work
# [4] = tested on: CYP1A2; parameters: method as in ref IB; conditions: human microsomes; ref IB; cited from earlier work
# [5] = tested on: CYP3A4; parameters: method as in ref IB; conditions: separate assay, ref IB, cited from earlier work
# [6] = tested on: human tumour xenograft; parameters: method as in ref IB; conditions: ref IB, cited from earlier work
# [7] = tested on: Han Wistar rats; conditions: rats 15 or 60 mg/kg/day and beagle dogs 20 mg/kg/day, 7 days; ref IB; cited from earlier work
# [8] = Module 2A N = 25, + fulvestrant
# [9] = Module 2A, 25 evaluable, + fulvestrant
# [10] = Module 2A, Liver metastases (N = 14)
smiles,measurement,setting,value
"CC(C)c1cnn2c(NCc3ccccc3)cc(NC[C@H]3CCNC[C@@H]3O)nc12 [samuraciclib, Samuraciclib]",Patients with PR persisting ≥24 weeks,[1]; Module 2A,2 patients
same,Patients with SD persisting ≥24 weeks,[1]; Module 2A,7 patients
same,"Progression-free survival, median (95% confidence interval)","[1]; Module 2A ITT N = 31, + fulvestrant","3.7 months and 3.7 (1.8, 7.4) months"
same,Best objective response: Complete response,[1]; [8],0 n (%)
same,Best objective response: Partial response,[1]; [8],3 (12.0) n (%)
same,Best objective response: Progressive disease,[1]; [8],9 (36.0) n (%)
same,Best objective response: Stable disease,[1]; [8],13 (52.0) n (%)
same,Clinical benefit rate at 24 weeks,[1]; [8],9 (36.0) n (%)
same,Objective response rate,[1]; [8],3 (12.0) n (%)
same,"Clinical benefit rate at 24 weeks, overall","[1]; Module 2A, 9/25, + fulvestrant",36.0%
same,Best RECIST response PR,[1]; [9],12.0%
same,Best RECIST response SD,[1]; [9],52.0%
same,Patients achieving PR,"[1]; Module 2A, + fulvestrant",3 patients
same,Clinical benefit rate at 24 weeks,[1]; [10],3 (21.4) n (%)
same,"Progression-free survival, median (95% CI)",[1]; [10],"2.8 months and 2.8 (1.8, 7.4) months"
same,Clinical benefit rate at 24 weeks,"[1]; Module 2A, No TP53 mutation (N = 19)",9 (47.4) n (%)
same,"Progression-free survival, median (95% CI)","[1]; Module 2A, No TP53 mutation (N = 20)","7.4 months and 7.4 (3.7, NC) months"
same,Clinical benefit rate at 24 weeks,"[1]; Module 2A, No liver metastases (N = 11)",6 (54.5) n (%)
same,"Progression-free survival, median (95% CI)","[1]; Module 2A, No liver metastases (N = 17)","13.8 months and 13.8 (7.4, NC) months"
same,Clinical benefit rate at 24 weeks,"[1]; Module 2A, TP53 mutation (N = 6)",0 n (%)
same,Clinical benefit rate at 24 weeks,"[1]; Module 2A, TP53 mutation group n = 6",0%
same,Clinical benefit rate at 24 weeks,"[1]; Module 2A, liver metastases, 3/14",21.4%
same,Clinical benefit rate at 24 weeks,"[1]; Module 2A, no detectable TP53 mutation, 9/19",47.4%
same,Clinical benefit rate at 24 weeks,"[1]; Module 2A, no liver metastases, 6/11",54.5%
same,Reduction of pPolII in lymphocytes,[2],approximately 30%
same,Oral bioavailability,[3]; rat,good oral bioavailability
same,Apparent elimination half-life (T½),[3]; rats,4.8 h
same,Plasma clearance,[3]; rats,high
same,Volume of distribution,[3]; rats,high volume of distribution
same,Anti-tumour efficacy,[6]; 100 mg/kg/day,robust efficacy
same,Anti-tumour efficacy,[6]; 30 and 50 mg/kg/day,moderate efficacy
same,Reticulocyte numbers,[7],significant decrease
